Experimental data from US6030823A, “D-aminoacylase” (Daicel Chemical Industries, Ltd., priority 1998, dated 2000).
Where “and” joins values, the source holds several entries; their conditions need not be identical. Equal values may be shown once. Read-outs that look alike come from different tables or passages of the source.

How the values were obtained:
[1] = test system: D-aminoacylase derived from Sebekia benihana IFO14309; test: Influences of inhibitors on the activity of the enzyme; type: biochemical
Procedure: (§1) The enzymatic reaction was performed in the same manner as in (1) except that the metal salts and enzyme inhibitors listed in Tables 10 and 11 (1 mM or 10 mM) were added to the reaction mixture.

[2] = test system: Sebekia benihana IFO14309; test: Induction of D-aminoacylase, experiment 3 (seed culture, 231 liquid medium, 0.05% inducer); type: cell-based; conditions: for Activity / Specific activity: experiment 3, 20 mM N-acetyl-D-methionine, 30° C., 5 min; for Induction of the enzyme (in words): used as inducers (Table 3)
Procedure: Third, a seed culture was prepared by incubating the strain in test tubes, each containing 5.0 ml of PY liquid medium for 51 hours with shaking. The seed culture (0.4 ml) was then inoculated with a 2-ml Komagome pipette into test tubes, each containing 8.0 ml of 231 liquid medium (1.0% maltose; 0.2% N.Z.Amine, Type A; 0.1% yeast extract; 0.1% meat extract; pH 7.3) supplemented with 0.05% D-phenylalanine, 0.05% D-tryptophan, 0.05% D-valine, 0.05% L-phenylalanine, 0.05% L-tryptophan, or 0.05% L-valine as inducers, and cultivated for 48 hours with shaking (experiment 3).
(§2) From the culture broth obtained in experiments 1, 2, and 3, the cells were collected by centrifugation at 8000 rpm (7000×g) for 20 min with a refrigerated centrifuge (Hitachi Koki Co., Ltd.). The collected cells were washed with 50 mM Tris-HCl buffer (pH 7.5), collected again by centrifugation using the same centrifuge, then stored at -20° C.
(§3) The stored cells were suspended in 20 ml of 50 mM Tris-HCl buffer (pH 7.5) and were disrupted by sonication at 200 W for 15 min. The lysate was centrifuged at 15,000 rpm for 30 min with the above centrifuge, and the supernatant was obtained as a crude enzyme solution.
(§4) The enzymatic reaction was performed in 1.0 ml of a reaction system containing 20 mM N-acetyl-D-methionine, 50 mM Tris-HCl buffer (pH 7.5), 1 mM CoCl2, and 100 μl of the enzyme solution at 30° C. for 20 min (experiment 1), 10 min (experiment 2), and 5 min (experiment 3). The reaction was stopped by adding a TCA solution.

[3] = test system: Sebekia benihana IFO14309; test: Induction of D-aminoacylase, experiment 2 (seed culture, PY liquid medium, 0.10% inducer); type: cell-based; conditions: 20 mM N-acetyl-D-methionine, 30° C., 10 min
Procedure: Second, a seed culture was prepared by incubating the strain in test tubes, each containing 5.0 ml of PY liquid medium for 71 hours. Then, 0.4 ml of the seed culture was inoculated with a 2-ml Komagome pipette into test tubes, each containing 8.0 ml of PY liquid medium supplemented with 0.10% DL-glutamine, 0.10% DL-histidine, 0.10% DL-isoleucine, 0.10% DL-phenylalanine, 0.10% proline, 0.10% DL-threonine, 0.10% DL-tryptophan, or 0.10% DL-valine as inducers, and cultivated for 74 hours with shaking (experiment 2).
as §2, §3, §4

[4] = test system: D-aminoacylase derived from Sebekia benihana IFO14309; type: biochemical
Procedure: as §1

[5] = test system: D-aminoacylase derived from Sebekia benihana IFO14309; test: Substrate specificity of the aminoacylase; type: biochemical; conditions: 20 mM substrate, 50 mM Tris-HCl pH 7.5, 30° C., 5 min
Procedure: The substrate specificity of the aminoacylase was examined using N-acetyl-D-methionine, N-acetyl-D-alanine, N-acetyl-D-aspartic acid, N-acetyl-D-leucine, N-acetyl-D-phenylalanine, N-acetyl-D-tryptophan, N-acetyl-D-valine, N-acetyl-L-leucine, N-acetyl-L-methionine, and N-acetyl-L-valine as substrates. The enzyme activity was assayed as follows. A 0.050-ml aliquot of an enzyme solution was added to 0.950 ml of 20 mM N-acetyl-D(or L)-amino acid in 50 mM Tris-HCl buffer (pH 7.5) and incubated at 30° C. for 5 min. The reaction was then stopped by adding 0.50 ml of a TCA solution to the reaction mixture. The relative activity is shown in Table 5, taking the activity for N-acetyl-L-methionine as 100%.

[6] = test system: Sebekia benihana IFO14309; test: Induction of D-aminoacylase, experiment 1 (PY liquid medium, 0.10% inducer); type: cell-based; conditions: 20 mM N-acetyl-D-methionine, 30° C., 20 min
Procedure: First, Sebekia benihana IFO14309 was cultured with shaking for 74 hours in test tubes, each containing 8.0 ml of PY liquid medium (0.2% glycerol, 2.0% yeast extract, 2.0% polypeptone, pH 7.3) supplemented with 0.10% DL-leucine, 0.10% N-acetyl-DL-leucine, 0.10% DL-methionine, 0.10% N-acetyl-DL-methionine, DL-valine, or 0.10% N-acetyl-DL-valine as inducers (experiment 1).
as §2, §3, §4

[7] = column 1 mM, PCMB was used at 0.01 mM
[8] = column 10 mM, PCMB was used at 0.1 mM

CCN1C(=O)C=CC1=O [N-ethyl-maleimide]
D-Met ([1]; inhibitor 1 mM): 1.7 mM | Residual activity ([1]; inhibitor 1 mM): 106% | D-Met ([1]; inhibitor 10 mM): 1.1 mM | Residual activity ([1]; inhibitor 10 mM): 69%

N[C@@H](Cc1c[nH]c2ccccc12)C(=O)O [L-Trp, L-tryptophan]
Activity [2]: 0.0243 U/ml of broth | Specific activity [2]: 0.0134 U/mg

NC(Cc1ccccc1)C(=O)O (racemic) [DL-Phe, DL-phenylalanine]
Activity [3]: 0.190 U/ml of broth | Specific activity [3]: 0.0701 U/mg

[Cl-].[Cl-].[Zn+2] [ZnCl2]
Effect of metal ions on the enzyme (in words) [4]: inhibited | D-Met ([4]; metal salt 1 mM): 0.50 mM | Residual activity ([4]; metal salt 1 mM): 42% | D-Met ([4]; metal salt 10 mM): 0 mM | Residual activity ([4]; metal salt 10 mM): 0%

CC(=O)N[C@H](C)C(=O)O [N-Ac-D-Ala, N-acetyl-D-alanine]
Relative activity [5]: 1.1%

CSCCC(N)C(=O)O (racemic) [DL-Methionine, DL-methionine]
Activity [6]: 0.177 U/ml of broth | Specific activity [6]: 0.0475 U/mg

O=C(O)[C@@H]1CCCN1 (racemic) [DL-Pro, proline]
Activity [3]: 0.00867 U/ml of broth | Specific activity [3]: 0.00286 U/mg

CC(=O)N[C@@H](CC(C)C)C(=O)O [N-Ac-L-Leu, N-acetyl-L-leucine]
Relative activity [5]: 0%

[Cl][Ni][Cl] [NiCl2]
Effect of metal ions on the enzyme (in words) [4]: inhibited | D-Met ([4]; metal salt 1 mM): 0.53 mM | Residual activity ([4]; metal salt 1 mM): 44% | D-Met ([4]; metal salt 10 mM): 0.035 mM | Residual activity ([4]; metal salt 10 mM): 2.9%

CC(=O)N[C@H](Cc1ccccc1)C(=O)O [N-Ac-D-Phe, N-acetyl-D-phenylalanine]
Relative activity [5]: 100%

C[C@@H](O)[C@H](N)C(=O)O (racemic) [DL-Thr, DL-threonine]
Activity [3]: 0.0163 U/ml of broth | Specific activity [3]: 0.00587 U/mg

N[C@H](Cc1ccccc1)C(=O)O [D-Phe, D-phenylalanine]
Activity [2]: 0.479 U/ml of broth | Specific activity [2]: 0.303 U/mg | Induction of the enzyme (in words) [2]: induced well

CC(C)[C@H](N)C(=O)O [L-Val, L-valine]
Activity [2]: 0.0265 U/ml of broth | Specific activity [2]: 0.0161 U/mg

[Cl-].[Cl-].[Mg+2] [MgCl2]
D-Met ([4]; metal salt 1 mM): 1.3 mM | Residual activity ([4]; metal salt 1 mM): 108% | D-Met ([4]; metal salt 10 mM): 1.2 mM | Residual activity ([4]; metal salt 10 mM): 100%

[Cl][Mn][Cl] [MnCl2]
D-Met ([4]; metal salt 1 mM): 1.3 mM | Residual activity ([4]; metal salt 1 mM): 108% | D-Met ([4]; metal salt 10 mM): 0.73 mM | Residual activity ([4]; metal salt 10 mM): 61%

CC(C)[C@@H](N)C(=O)O [D-Val, D-valine]
Activity [2]: 1.27 U/ml of broth | Specific activity [2]: 0.780 U/mg | Induction of the enzyme (in words) [2]: induced well

[Cl][Fe][Cl] [FeCl2]
Effect of metal ions on the enzyme (in words) [4]: inhibited | D-Met ([4]; metal salt 1 mM): 0.24 mM | Residual activity ([4]; metal salt 1 mM): 20% | D-Met ([4]; metal salt 10 mM): 0.035 mM | Residual activity ([4]; metal salt 10 mM): 2.9%

N[C@H](Cc1c[nH]c2ccccc12)C(=O)O [D-Trp, D-tryptophan]
Activity [2]: 0.913 U/ml of broth | Specific activity [2]: 0.537 U/mg | Induction of the enzyme (in words) [2]: induced well

O=C(O)CN(CCN(CC(=O)O)CC(=O)O)CC(=O)O [EDTA]
D-Met [1]: 1.6 mM | Effect of inhibitors on the enzyme (in words) [1]: inhibited | Residual activity [1]: 100%

[Ca+2].[Cl-].[Cl-] [CaCl2]
D-Met ([4]; metal salt 1 mM): 1.3 mM | Residual activity ([4]; metal salt 1 mM): 108% | D-Met ([4]; metal salt 10 mM): 1.1 mM | Residual activity ([4]; metal salt 10 mM): 92%

CC(=O)NC(C(=O)O)C(C)C (racemic) [N-Ac-DL-Valine, N-acetyl-DL-valine]
Activity [6]: 0.114 U/ml of broth | Specific activity [6]: 0.0341 U/mg

[Ba+2].[Cl-].[Cl-] [BaCl2]
D-Met ([4]; metal salt 1 mM): 1.2 mM | Residual activity ([4]; metal salt 1 mM): 100% | D-Met ([4]; metal salt 10 mM): 1.1 mM | Residual activity ([4]; metal salt 10 mM): 92%

CSCC[C@@H](NC(C)=O)C(=O)O [N-Ac-D-Met, N-acetyl-D-methionine]
Relative activity [5]: 100%

N[C@@H](Cc1ccccc1)C(=O)O [L-Phe, L-phenylalanine]
Activity [2]: 0.00973 U/ml of broth | Specific activity [2]: 0.0064 U/mg

[F-].[Na+] [NaF]
D-Met ([1]; inhibitor 1 mM): 1.6 mM | Residual activity ([1]; inhibitor 1 mM): 100% | D-Met ([1]; inhibitor 10 mM): 1.4 mM | Residual activity ([1]; inhibitor 10 mM): 88%

O=C(O)CN(CCN(CC(=O)O)CC(=O)O)CC(=O)O [EDTA · 2Na]
D-Met [4]: 1.2 mM and 1.3 mM | Residual activity [4]: 108%

CC[C@H](C)[C@H](N)C(=O)O (racemic) [DL-Ile, DL-isoleucine]
Activity [3]: 0.214 U/ml of broth | Specific activity [3]: 0.0799 U/mg

[Cl][Hg][Cl] [HgCl2]
Effect of metal ions on the enzyme (in words) [4]: inhibited | D-Met ([4]; metal salt 1 mM): 0.38 mM | Residual activity ([4]; metal salt 1 mM): 32% | D-Met ([4]; metal salt 10 mM): 0 mM | Residual activity ([4]; metal salt 10 mM): 0%

c1ccc(-c2ccccn2)nc1 [2,2'-Bipyridyl]
D-Met ([1]; inhibitor 1 mM): 1.6 mM | Residual activity ([1]; inhibitor 1 mM): 100% | D-Met ([1]; inhibitor 10 mM): 1.4 mM | Residual activity ([1]; inhibitor 10 mM): 88%

[Cl-].[K+] [KCl]
D-Met ([4]; metal salt 1 mM): 1.2 mM | Residual activity ([4]; metal salt 1 mM): 100% | D-Met ([4]; metal salt 10 mM): 1.1 mM | Residual activity ([4]; metal salt 10 mM): 92%

CC(C)C(N)C(=O)O (racemic) [DL-Valine, DL-valine]
Activity [3]: 0.239 U/ml of broth | Specific activity [3]: 0.0920 U/mg | Activity [6]: 0.429 U/ml of broth | Specific activity [6]: 0.133 U/mg

[Cl-].[Cl-].[Co+2] [CoCl2]
Effect of metal ions on the enzyme (in words) [4]: inhibited | D-Met ([4]; metal salt 1 mM): 0.65 mM | Residual activity ([4]; metal salt 1 mM): 54% | D-Met ([4]; metal salt 10 mM): 0.11 mM | Residual activity ([4]; metal salt 10 mM): 9.2%

CSCCC(NC(C)=O)C(=O)O (racemic) [N-Ac-DL-Methionine, N-acetyl-DL-methionine]
Activity [6]: 0.0713 U/ml of broth | Specific activity [6]: 0.0186 U/mg

CC(=O)NC(CC(C)C)C(=O)O (racemic) [N-Ac-DL-Leucine, N-acetyl-DL-leucine]
Activity [6]: 0.158 U/ml of broth | Specific activity [6]: 0.0545 U/mg

NC(Cc1c[nH]c2ccccc12)C(=O)O (racemic) [DL-Trp, DL-tryptophan]
Activity [3]: 0.312 U/ml of broth | Specific activity [3]: 0.119 U/mg

CC(C)CC(N)C(=O)O (racemic) [DL-Leucine, DL-leucine]
Activity [6]: 0.315 U/ml of broth | Specific activity [6]: 0.0967 U/mg

[Cl-].[Na+] [NaCl]
D-Met [4]: 1.3 mM and 1.1 mM | Residual activity [4]: 108% and 92%

NC(Cc1c[nH]cn1)C(=O)O (racemic) [DL-His, DL-histidine]
Activity [3]: 0.0144 U/ml of broth | Specific activity [3]: 0.0064 U/mg

OC(CS)C(O)CS (stereo not shown) [DTT]
D-Met ([1]; inhibitor 1 mM): 0.13 mM | Residual activity ([1]; inhibitor 1 mM): 8.1% | D-Met ([1]; inhibitor 10 mM): 0.055 mM | Residual activity ([1]; inhibitor 10 mM): 3.4%

O=C(O)c1cc[c]([Hg][Cl])cc1 [PCMB, p-chloromercuribenzoic acid]
Effect of inhibitors on the enzyme (in words) [1]: inhibited | D-Met [1, 7]: 1.8 mM | Residual activity [1, 7]: 112% | D-Met [1, 8]: 1.6 mM | Residual activity [1, 8]: 100%

O=C(O)CI [ICH2 COOH, iodoacetic acid]
Effect of inhibitors on the enzyme (in words) [1]: inhibited

[Cl][Cu][Cl] [CuCl2]
Effect of metal ions on the enzyme (in words) [4]: inhibited | D-Met ([4]; metal salt 1 mM): 0.13 mM | Residual activity ([4]; metal salt 1 mM): 11% | D-Met ([4]; metal salt 10 mM): 0 mM | Residual activity ([4]; metal salt 10 mM): 0%
